# Reference: patent publication EP4682145A1, “BENZOHETEROCYCLIC COMPOUND, AND PREPARATION METHOD THEREFOR AND USE THEREOF” (Cascade Pharmaceuticals, Inc., priority 2023, dated 2024)
# pEC50: −log10 of the molar value.
# Biological target: T1, human FFAR1 (GPR40) (Homo sapiens, UniProt O14842)
# T1 construct: Flag; expressed in transfected cells; host or cells: HEK293T
# Experiment: NFAT-RE-based reporter gene activity assay (Dual-Glo luciferase) for GPR40 agonistic activity in co-transfected HEK293T cells
# Assay type: cell-based
# Conditions: 4-hour treatment; for Efficacy (%): class symbols
# How it was run: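 HEK293T cells co-transfected with human FFAR1, NFAT-RE firefly luciferase and TK-Renilla plasmids; 24 h later treated 4 h with 10 half-log compound dilutions from 1 µM. Firefly/Renilla ratio normalised to DMSO; EC50 from four-parameter fit.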
# T1 sequence (O14842 whole entry): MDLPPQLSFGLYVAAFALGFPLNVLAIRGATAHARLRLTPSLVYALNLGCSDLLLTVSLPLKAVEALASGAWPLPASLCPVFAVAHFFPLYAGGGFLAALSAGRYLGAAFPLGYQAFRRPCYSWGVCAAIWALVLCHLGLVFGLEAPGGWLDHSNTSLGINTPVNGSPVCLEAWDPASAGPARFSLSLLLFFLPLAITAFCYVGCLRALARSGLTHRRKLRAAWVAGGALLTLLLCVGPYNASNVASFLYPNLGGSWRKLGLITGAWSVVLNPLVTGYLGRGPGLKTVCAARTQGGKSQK
SMILES,pEC50,Efficacy (%)
COc1cccc(N2CCC(c3oc4cc(C(CC(=O)O)C5CC5)ccc4c3/C=C/C3CC3)CC2)c1 (stereo not shown) [Compound 364],6.30 to 7.00,†† (150 ≥ Efficacy (%) > 100)
COc1ccc(F)c(N2CCC(c3oc4cc(C(CC(=O)O)C5CC5)ccc4c3/C=C/C(C)(C)C)CC2)c1 (stereo not shown) [Compound 366],7.00 to 8.00,†† (150 ≥ Efficacy (%) > 100)
COc1ccc(F)c(N2CCC(c3oc4cc([C@@H](CC(=O)O)C5CC5)ccc4c3/C=C/C(C)(C)C)CC2)c1 [Compound 367],≥ 8.00,†† (150 ≥ Efficacy (%) > 100)
COc1ccc(F)c(N2CCC(c3oc4cc(C(CC(=O)O)C5CC5)ccc4c3/C=C/C(C)(C)O)CC2)c1 (stereo not shown) [Compound 368],6.30 to 7.00,††† (Efficacy (%) > 150)
COc1ccc(F)c(N2CCC(c3oc4cc([C@@H](CC(=O)O)C5CC5)ccc4c3/C=C/C(C)(C)O)CC2)c1 [Compound 369],6.30 to 7.00,† (100 ≥ Efficacy (%) > 50)
COc1ccc(F)c(N2CCC(c3oc4cc(C(CC(=O)O)C5CC5)ccc4c3C=C(C)C)CC2)c1 (stereo not shown) [Compound 370],6.30 to 7.00,†† (150 ≥ Efficacy (%) > 100)
COc1ccc(F)c(N2CCC(c3oc4cc(C(CC(=O)O)C5CC5)ccc4c3C/C=C/C(C)C)CC2)c1 (stereo not shown) [Compound 371],6.30 to 7.00,†† (150 ≥ Efficacy (%) > 100)
COc1ccc(F)c(N2CCC(c3oc4cc([C@@H](CC(=O)O)C5CC5)ccc4c3CC=C(C)C)CC2)c1 [Compound 372],6.30 to 7.00,†† (150 ≥ Efficacy (%) > 100)
COc1ccc(F)c(N2CCC(c3oc4cc([C@@H](CC(=O)O)C5CC5)ccc4c3C/C=C/C3CC3)CC2)c1 [Compound 373],7.00 to 8.00,†† (150 ≥ Efficacy (%) > 100)
COc1cccc(N2CCC(c3oc4cc([C@@H](CC(=O)O)C5CC5)ccc4c3CC=C(C)C)CC2)c1 [Compound 374],7.00 to 8.00,†† (150 ≥ Efficacy (%) > 100)
COc1cccc(N2CCC(c3oc4cc([C@@H](CC(=O)O)C5CC5)ccc4c3C/C=C/C3CC3)CC2)c1 [Compound 375],6.30 to 7.00,†† (150 ≥ Efficacy (%) > 100)
CC(C)=CCc1c(C2CCN(c3ccc4c(c3)OCO4)CC2)oc2cc([C@@H](CC(=O)O)C3CC3)ccc12 [Compound 376],7.00 to 8.00,†† (150 ≥ Efficacy (%) > 100)
COc1cccc(N2CCC(c3oc4cc(C(CC(=O)O)C5CC5)ccc4c3C(=CCC(C)C)c3ccccc3)CC2)c1 (stereo not shown) [Compound 377],7.00 to 8.00,†† (150 ≥ Efficacy (%) > 100)
COc1ccc(F)c(N2CCC(c3oc4cc(C(CC(=O)O)C5CC5)ccc4c3C3=CCCCC3)CC2)c1 (stereo not shown) [Compound 379],6.30 to 7.00,†† (150 ≥ Efficacy (%) > 100)
COc1ccc(F)c(N2CCC(c3oc4cc(C(CC(=O)O)C5CC5)ccc4c3C3=CCC(C(C)(C)C)CC3)CC2)c1 (stereo not shown) [Compound 380],< 6.30,†† (150 ≥ Efficacy (%) > 100)
COc1ccc(F)c(N2CCC(c3oc4cc(C(CC(=O)O)C5CC5)ccc4c3CC3=CCCC3)CC2)c1 (stereo not shown) [Compound 383],6.30 to 7.00,††† (Efficacy (%) > 150)
CCCCC(C)c1c(C2CCN(c3cccc(OC)c3)CC2)oc2cc([C@@H](CC(=O)O)C3CC3)ccc12 (stereo partly shown) [Compound 384],6.30 to 7.00,†† (150 ≥ Efficacy (%) > 100)
COc1cccc(N2CCC(c3oc4cc([C@@H](CC(=O)O)C5CC5)ccc4c3C(C)CCC(C)C)CC2)c1 (stereo partly shown) [Compound 385],7.00 to 8.00,†† (150 ≥ Efficacy (%) > 100)
CCCCC(c1ccccc1)c1c(C2CCN(c3cccc(OC)c3)CC2)oc2cc([C@@H](CC(=O)O)C3CC3)ccc12 (stereo partly shown) [Compound 386],7.00 to 8.00,†† (150 ≥ Efficacy (%) > 100)
COc1cccc(N2CCC(c3oc4cc([C@@H](CC(=O)O)C5CC5)ccc4c3C(CCC(C)C)c3ccccc3)CC2)c1 (stereo partly shown) [Compound 387],7.00 to 8.00,†† (150 ≥ Efficacy (%) > 100)
COc1ccc(F)c(N2CCC(c3oc4cc(C(CC(=O)O)C5CC5)ccc4c3CCC(C)(C)C)CC2)c1 (stereo not shown) [Compound 388],6.30 to 7.00,†† (150 ≥ Efficacy (%) > 100)
COc1ccc(F)c(N2CCC(c3oc4cc([C@@H](CC(=O)O)C5CC5)ccc4c3CCC(C)(C)C)CC2)c1 [Compound 389],6.30 to 7.00,†† (150 ≥ Efficacy (%) > 100)
COc1ccc(F)c(N2CCC(c3oc4cc(C(CC(=O)O)C5CC5)ccc4c3CCC(C)(C)O)CC2)c1 (stereo not shown) [Compound 390],6.30 to 7.00,†† (150 ≥ Efficacy (%) > 100)
COc1ccc(F)c(N2CCC(c3oc4cc([C@@H](CC(=O)O)C5CC5)ccc4c3CCCC3CC3)CC2)c1 [Compound 391],6.30 to 7.00,†† (150 ≥ Efficacy (%) > 100)
COc1ccc(F)c(N2CCC(c3oc4cc(C(CC(=O)O)C5CC5)ccc4c3CCOC(C)C)CC2)c1 (stereo not shown) [Compound 393],6.30 to 7.00,†† (150 ≥ Efficacy (%) > 100)

SMILES,pEC50,Efficacy (%)
COc1ccc(F)c(N2CCC(c3oc4cc(C(CC(=O)O)C5CC5)ccc4c3CC(C)OC)CC2)c1 (stereo not shown) [Compound 394],< 6.30,†† (150 ≥ Efficacy (%) > 100)
COc1ccc(F)c(N2CCC(c3oc4cc(C(CC(=O)O)C5CC5)ccc4c3CC(C)=O)CC2)c1 (stereo not shown) [Compound 395],6.30 to 7.00,† (100 ≥ Efficacy (%) > 50)
COc1cccc(N2CCC(c3oc4cc([C@@H](CC(=O)O)C5CC5)ccc4c3COC(=O)C(C)(C)C)CC2)c1 [Compound 398],6.30 to 7.00,††† (Efficacy (%) > 150)
COc1cccc(N2CCC(c3oc4cc([C@@H](CC(=O)O)C5CC5)ccc4c3C3OCC(C)(C)CO3)CC2)c1 [Compound 399],6.30 to 7.00,†† (150 ≥ Efficacy (%) > 100)
COc1cccc(N2CCC(c3oc4cc(C(CC(=O)O)C5CC5)ccc4c3C3O[C@@H](C)[C@H](C)O3)CC2)c1 (stereo partly shown) [Compound 400],6.30 to 7.00,† (100 ≥ Efficacy (%) > 50)
COc1cccc(N2CCC(c3oc4cc([C@@H](CC(=O)O)C5CC5)ccc4c3COc3ccccc3)CC2)c1 [Compound 404],6.30 to 7.00,†† (150 ≥ Efficacy (%) > 100)
COc1cccc(N2CCC(c3oc4cc([C@@H](CC(=O)O)C5CC5)ccc4c3C(C)OC)CC2)c1 (stereo partly shown) [Compound 406],6.30 to 7.00,††† (Efficacy (%) > 150)
CCOC(C)c1c(C2CCN(c3cccc(OC)c3)CC2)oc2cc([C@@H](CC(=O)O)C3CC3)ccc12 (stereo partly shown) [Compound 407],6.30 to 7.00,††† (Efficacy (%) > 150)
CCCOC(C)c1c(C2CCN(c3cccc(OC)c3)CC2)oc2cc([C@@H](CC(=O)O)C3CC3)ccc12 (stereo partly shown) [Compound 408],6.30 to 7.00,††† (Efficacy (%) > 150)
COc1cccc(N2CCC(c3oc4cc([C@@H](CC(=O)O)C5CC5)ccc4c3C(C)OCC(C)C)CC2)c1 (stereo partly shown) [Compound 409],7.00 to 8.00,††† (Efficacy (%) > 150)
CCCCOC(C)c1c(C2CCN(c3cccc(OC)c3)CC2)oc2cc([C@@H](CC(=O)O)C3CC3)ccc12 (stereo partly shown) [Compound 410],6.30 to 7.00,††† (Efficacy (%) > 150)
COc1cccc(N2CCC(c3oc4cc([C@@H](CC(=O)O)C5CC5)ccc4c3C(C)OCC(C)(C)C)CC2)c1 (stereo partly shown) [Compound 411],7.00 to 8.00,†† (150 ≥ Efficacy (%) > 100)
COc1cccc(N2CCC(c3oc4cc([C@@H](CC(=O)O)C5CC5)ccc4c3C(C)OCCC(C)(C)C)CC2)c1 (stereo partly shown) [Compound 412],6.30 to 7.00,††† (Efficacy (%) > 150)
CCC(C)COC(C)c1c(C2CCN(c3cccc(OC)c3)CC2)oc2cc([C@@H](CC(=O)O)C3CC3)ccc12 (stereo partly shown) [Compound 413],6.30 to 7.00,††† (Efficacy (%) > 150)
COc1cccc(N2CCC(c3oc4cc([C@@H](CC(=O)O)C5CC5)ccc4c3C(C)OCC[C@@H](C)CCCC(C)C)CC2)c1 (stereo partly shown) [Compound 414],< 6.30,††† (Efficacy (%) > 150)
COc1cccc(N2CCC(c3oc4cc([C@@H](CC(=O)O)C5CC5)ccc4c3C(C)OCC[C@@H](C)CCC=C(C)C)CC2)c1 (stereo partly shown) [Compound 415],< 6.30,††† (Efficacy (%) > 150)
CCC(OCC(C)(C)C)c1c(C2CCN(c3cccc(OC)c3)CC2)oc2cc([C@@H](CC(=O)O)C3CC3)ccc12 (stereo partly shown) [Compound 416],7.00 to 8.00,†† (150 ≥ Efficacy (%) > 100)
COc1cccc(N2CCC(c3oc4cc([C@@H](CC(=O)O)C5CC5)ccc4c3C(C)OCC3CC3)CC2)c1 (stereo partly shown) [Compound 417],6.30 to 7.00,††† (Efficacy (%) > 150)
COc1cccc(N2CCC(c3oc4cc([C@@H](CC(=O)O)C5CC5)ccc4c3C(C)OCC3CCC3)CC2)c1 (stereo partly shown) [Compound 418],7.00 to 8.00,††† (Efficacy (%) > 150)
COc1cccc(N2CCC(c3oc4cc([C@@H](CC(=O)O)C5CC5)ccc4c3C(C)OCC3CCCC3)CC2)c1 (stereo partly shown) [Compound 419],7.00 to 8.00,††††
COc1cccc(N2CCC(c3oc4cc([C@@H](CC(=O)O)C5CC5)ccc4c3C(C)OCc3ccco3)CC2)c1 (stereo partly shown) [Compound 420],6.30 to 7.00,†† (150 ≥ Efficacy (%) > 100)
COc1cccc(N2CCC(c3oc4cc([C@@H](CC(=O)O)C5CC5)ccc4c3C(C)OCc3cccs3)CC2)c1 (stereo partly shown) [Compound 421],6.30 to 7.00,††† (Efficacy (%) > 150)
COc1cccc(N2CCC(c3oc4cc([C@@H](CC(=O)O)C5CC5)ccc4c3C(O)C(C)(C)C)CC2)c1 (stereo partly shown) [Compound 423],6.30 to 7.00,† (100 ≥ Efficacy (%) > 50)
COc1cccc(N2CCC(c3oc4cc([C@@H](CC(=O)O)C5CC5)ccc4c3C(O)c3ccccc3)CC2)c1 (stereo partly shown) [Compound 424],< 6.30,†† (150 ≥ Efficacy (%) > 100)
COc1cccc(N2CCC(c3oc4cc([C@@H](CC(=O)O)C5CC5)ccc4c3C(OC)c3ccccc3)CC2)c1 (stereo partly shown) [Compound 425],6.30 to 7.00,†† (150 ≥ Efficacy (%) > 100)
